Test results taken from publication PMC8333425, “Discovery of a dual Ras and ARF6 inhibitor from a GPCR endocytosis screen” (Nature Communications, 2021).

How the values were obtained:
Rac/Cdc42 = Rac/Cdc42 BRET sensor (PAK-CRIB-RlucII / rGFP-CAAX), AT1R-mediated; format: cell-based, human
Source text: Since 21 inhibited both ERK1/2 and Akt activation by GPCRs and EGFR, we looked at a common target involved in both pathways. The small G protein Ras is an upstream regulator of both Ras-RAF-MEK-ERK and PI3K/Akt signaling pathways[35],[36]. Therefore, we explored 21’s ability to inhibit Ras activity using GST-Raf1-Ras-binding domain (RBD) in a pull-down assay. A reduction of 60% in GTP-bound Ras was noticed in pulled-down from cells treated with 21 and stimulated with either AT1R or EGFR, as compared to vehicle-treated cells (Fig. 4a, b). Complementary to this in vitro assay, we generated a Ras BRET assay, using the Raf-Ras binding domain tagged with RlucII (Raf1-RBD-RlucII) and the rGFP at the PM (rGFP-CAAX) (Supplementary Fig. 3c), to assess 21’s effects on Ras activation kinetics. […] Overexpression of either the active form of Ras (G12V) or SOS1 anchored at the PM (SOS-CAAX) produced a robust basal BRET signal that was no longer modulated by receptor activation (Supplementary Fig. 3d). […] 21’s potency to inhibit ARF6 and Ras is also consistent with its relative efficacy for inhibiting AT1R internalization and MAPK, respectively, when used at 50 μM (e.g., around 7 and 70 times the respective IC50s) (Figs. 2e and 3a). We also assessed if 21 was acting as a pan small G protein inhibitor by testing its effect on Rho and Rac/Cdc42. […] To assess Rac/Cdc42 activity, we generated a Rac/Cdc42 BRET sensor that consisted of the PAK-CRIB domain fused to RlucII (PAK-CRIB-RlucII) and the rGFP-CAAX (Supplementary Fig. 3e). PAK-CRIB, which binds to active Rac/Cdc42, was recruited to the PM upon AngII stimulation of cells and generated a robust BRET signal, which was blocked by the overexpression of the DN Rac1-T17N. Overexpression of the constitutively active Rac1-Q61L increased the basal BRET, which was no longer modulated by AT1R stimulation (Supplementary Fig. 3f).
HEK293SL cells were seeded at a density of 7.5 × 10^5 cells per 100-mm dish and 24 h later, transiently transfected as such. For receptor internalization experiments, cells were transfected with 0.12 μg AT1R-RlucII, B2R-RlucII, or β2AR-RlucII and 0.48 μg of either rGFP-CAAX (to assess removal from the PM) or rGFP-FYVE (to assess accumulation in the endosomes). For β-arrestin recruitment assays, cells were transfected with 0.48 μg of receptor-YFP along with 0.12 μg of β-arrestin-RlucII. For β-arrestin/AP-2 binding experiments, cells were transfected with 1 μg Flag-AT1R, 1 μg β2-Adaptin-YFP, and 0.12 μg β-arrestin2-RlucII. For G protein activation, cells were transfected with 3 μg of sp-Flag-AT1R along with either 4.5 μg of the Gαq-polycistronic BRET sensor or 0.24 μg of the Gαi3-RlucII and 0.6 μg of GFP10-Gγ2 and Gβ1 sensors or 0.12 μg PKN-RBD-RlucII and 0.48 μg of rGFP-CAAX. For PKC activation, cells were transfected with 3 μg of sp-Flag-AT1R and 0.18 μg of the PKC sensor. For GTPase activation experiments, cells were transfected with 1 μg Flag-AT1R, 0.48 μg of rGFP-CAAX, and either 0.12 μg of GGA3-PBD-RlucII, PAK-CRIB-RlucII or Raf-RBD-RlucII. For biosensor validation experiments, cells were additionally transfected with 500 ng Flag-K-Ras-WT, Flag-K-Ras-G12V, Flag-K-Ras-SOS-CAAX, HA-ARF6-WT, HA-ARF6-T27N, Myc-Rac1-WT, Myc-Rac1-Q61L or Myc-Rac1-T17N. For PI3K/Akt activation experiments, cells were transfected with 0.48 μg of rGFP-CAAX and 0.12 μg of Akt (PH)-RlucII. After 18 h of transfection, the media was replaced and cells were divided for subsequent experiments. Cells were detached and seeded onto poly-L-ornithine-coated 96-well flat white bottom plates (BrandTech Scientific) at a density of 2.5 × 10^4 cells per well in media. The next day, cells were washed once with Tyrode’s buffer (140 mM NaCl, 2.7 mM KCl, 1 mM CaCl2, 12 mM NaHCO3, 5.6 mM D-glucose, 0.5 mM MgCl2, 0.37 mM NaH2PO4, 25 mM HEPES, pH 7.4) and left in Tyrode’s buffer. […]

K-Ras-Y32A = biological target: T1, K-Ras-Y32A (Homo sapiens, UniProt P01116, Y32A); experiment: In vitro mant-GTP exchange assay, purified K-Ras-Y32A with SOS1; format: biochemical; details: 50 μM
T1 construct: GST (N); FLAG (N); host or cells: E. coli BL21
T1 sequence (P01116 1-188 isoform P01116-2 Y32A): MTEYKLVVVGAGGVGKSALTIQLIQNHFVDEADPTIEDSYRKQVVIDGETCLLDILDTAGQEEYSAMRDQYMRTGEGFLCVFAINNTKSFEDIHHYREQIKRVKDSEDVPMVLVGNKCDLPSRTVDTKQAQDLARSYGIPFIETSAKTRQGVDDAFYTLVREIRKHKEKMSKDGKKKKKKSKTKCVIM
Procedure: Ras activity was assessed in a 384-well black bottom plate using the mant-GTP exchange factor assay that measures the uptake of the fluorescent nucleotide analog N-methylanthraniloyl-GTP (mant-GTP) into GTPases. For Ras activation, 2X exchange buffer, 1.66 μg of purified pGEX-6P-1-H-Ras or pGEX-6P-1-K-Ras-WT or pGEX-6P-1-K-Ras-Y32A were added per well in presence of DMSO, different concentrations of Rasarfin (as indicated) or 50 µM of compounds 21.4, 21.7, or 21.8. Using the Infinite 200 Pro plate reader (Tecan) with filters set at 360 nm and 440 nm for detecting the excitation and emissions, respectively, and temperature set at 20 °C, 5 readings were recorded every 5 s before the addition of either H2O, 40 mM EDTA or 0.66 μg purified SOS1. The fluorescence of mant-GTP uptake was measured every 30 sec for 30 min and quantified as the delta relative fluorescence units (RFU), which was calculated as the RFU post-addition minus the 5 averaged RFU pre-addition, per condition.

CC(C)C(=O)N1CCN(c2ccc(NC(=O)c3cc4ccccc4o3)cc2Cl)CC1 [Compound 21]
Rac/Cdc42 activation mediated by AT1R (BRET sensor) (Rac/Cdc42): failed to inhibit Rac/Cdc42 activation
Rac MEAN (Fig.4d) (Rac/Cdc42; Log [Comp 21] (M) -4): 98.9456
Rac MEAN (Fig.4d) (Rac/Cdc42; Log [Comp21] (M) -4.3): 92.4505
Rac MEAN (Fig.4d) (Rac/Cdc42; Log [Comp21] (M) -5): 96.5837
Rac MEAN (Fig.4d) (Rac/Cdc42; Log [Comp21] (M) -5.3): 100.464
Rac MEAN (Fig.4d) (Rac/Cdc42; Log [Comp 21] (M) -6): 102.348
Rac MEAN (Fig.4d) (Rac/Cdc42; Log [Comp21] (M) -6.3): 96.0354
Rac MEAN (Fig.4d) (Rac/Cdc42; Log [Comp 21] (M) -7): 96.1409
SOS-mediated mant-GTP binding onto purified K-Ras-Y32A (K-Ras-Y32A): but not on K-Ras-Y32A
